Earlier results in EP4603079A1, “COMPOSITION COMPRISING A PEPTIDE HAVING AN ISOELECTRIC POINT OF LESS THAN 6.5 AND A CO-POLYAMINO ACID BEARING CARBOXYLATE CHARGES AND HYDROPHOBIC RADICALS” (Adocia, priority 2024, dated 2025).

Biological target: T1, amylin receptor 3 (AMYR3) (Homo sapiens, UniProt O60896+P30988)
T1 sequence (P30988 25-474): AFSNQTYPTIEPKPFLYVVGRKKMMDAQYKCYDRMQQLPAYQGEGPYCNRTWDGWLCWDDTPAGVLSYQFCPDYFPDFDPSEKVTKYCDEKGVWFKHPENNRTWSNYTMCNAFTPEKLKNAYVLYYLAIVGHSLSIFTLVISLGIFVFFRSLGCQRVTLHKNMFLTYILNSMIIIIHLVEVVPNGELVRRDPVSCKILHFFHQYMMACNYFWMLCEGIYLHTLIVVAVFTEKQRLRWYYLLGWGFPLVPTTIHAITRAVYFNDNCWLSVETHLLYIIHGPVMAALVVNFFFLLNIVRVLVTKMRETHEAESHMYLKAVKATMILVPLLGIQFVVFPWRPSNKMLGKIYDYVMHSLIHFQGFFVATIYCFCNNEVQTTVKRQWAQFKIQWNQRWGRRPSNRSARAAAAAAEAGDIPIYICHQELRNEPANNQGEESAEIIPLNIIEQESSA
T1 sequence (O60896 24-148): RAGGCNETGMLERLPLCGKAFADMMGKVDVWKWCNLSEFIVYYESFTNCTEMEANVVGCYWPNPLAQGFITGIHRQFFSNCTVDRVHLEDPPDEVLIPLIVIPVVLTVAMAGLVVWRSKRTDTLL
Settings: procedure of WO2022129526, Assay 2; Tables 4b and 4c there; read-out: EC50value

## N-alpha-[(S)-4-Carboxy-4-(19-carboxynonadecanoylamino)butyryl]-[Glu14,Arg17,Pro37]-pramlintide [cagrilintide]
  EC50: ~11 pM
